Laboratory results: patent publication US20230364079A1, “COMPOUND AS BRAIN-PERMEABLE BTK OR HER2 INHIBITOR, PREPARATION METHOD THEREFOR, AND USE THEREOF” (CHENGDU HYPERWAY PHARMACEUTICALS CO., LTD., priority 2020, published 2023)
Structures can show the parent of a compound that is named as a salt. Where two headings read alike, the source gives them in different places.

Experiments:
[1] = Liver microsome metabolic stability test, human; assay type: in vitro ADME; settings: for half-life: liver microsomes, 0.5 mg/mL protein, read-out: T½
Method: (§1) 1: To the sample wells of T0, T5, T10, T20, T30, T60 and NCF60, 10 µL of the test or reference working solution and 80 µL of microsome working solution (hepatic microsome with a protein concentration of 0.5 mg/mL) were added, and to Blank60 well, only the microsome working solution was added. Then samples of the Blank60, T5, T10, T20, T30 and T60 other than T0 and NCF60 were placed in a 37° C. water bath and pre-incubated for about 10 min.
(§2) 2: To the T0 sample well, 300 µL of stop solution (containing 200 ng/mL tolbutamide and 200 ng/mL labetalol in acetonitrile solution) was added first, followed by 10 µL of NADPH regeneration system working solution.
(§3) 3: After the pre-incubation of Blank60, T5, T10, T20, T30 and T60 incubation plates, 10 µL of NADPH regeneration system working solution was added to each sample well to start the reaction, and 10 µL of 100 mM potassium phosphate buffer was added to the NCF60 sample well.
(§4) 4: After incubation for an appropriate time (such as 5, 10, 20, 30 and 60 min), to each test sample well and control well of the Blank60, T5, T10, T20, T30, T60 and NCF60 plates, 300 µL of stop solution was added to terminate the reaction.
(§5) 5: All sample plates were shaken to mix well and centrifuged at 4000 rpm for 20 min, and 100 µL of the supernatant of the test sample or control sample was taken and diluted with 300 µL of pure water for LC-MS/MS analysis.
(§6) 6: Data analysis: T½ and CLint(mic) (µL/min/mg) values were calculated according to the first-order elimination kinetics. The first-order elimination kinetics equation was: […]

[2] = biological target: BTK mutation-type C481S kinase (Homo sapiens (Human), UniProt Q06187, C481S); assay: BTK-C481S kinase activity inhibition test in vitro (Caliper EZ Reader); assay type: biochemical
Method: In the tests on the activity of inhibiting BTK and HER2 kinase in vitro in the examples of the present disclosure, powder of the compound was dissolved in 100% DMSO to prepare a 10 mM stock solution and stored at-20° C. in the dark. […] In addition, the compounds were subjected to experiments such as liver microsome metabolic stability, rat PK, rat brain penetration rate, and drug efficacy model in the examples of the present disclosure.
Compound powders were dissolved in 100% DMSO to make 10 mM stock solutions, which were stored at -20° C. in the dark.
2: Kinase Reaction Process
(1) Preparation of 1 × Kinase buffer.
(5) After centrifugation at 1000 rpm for 30 seconds, the reaction plate was shaken to mix well and incubated at room temperature for 10 min.
(6) A 5/3-fold final concentration of a mixed solution of ATP and Kinase substrate 2 was prepared with 1 × Kinase buffer.
(7) 15 µL of the mixed solution of ATP and substrate with 5/3-fold final concentration was added to start the reaction.
(8) The 384-well plate was centrifuged at 1000 rpm for 30 seconds, shaken to mix well, and incubated at room temperature for 10 min.
(9) 30 µL of a stop solution was added to stop the kinase reaction, and after centrifugation at 1000 rpm for 30 seconds, the plate was shaken to mix well;
(10) The conversion rate was read with Caliper EZ Reader.
where Conversion%_sample indicates the conversion rate reading of the sample; Conversion%_min is the average reading of the negative control wells, representing the conversion rate reading of the wells without enzyme activity; Conversion%_max is the average reading of the ratio of the positive control wells, representing the conversion rate reading of the wells without compound inhibition.
Dose-Response Curve Fitting
With the log value of the concentration as the X-axis, and the percentage inhibition rate as the Y-axis, the dose-effect curve was fitted using the log(inhibitor) vs. response-Variable slope of the analysis software GraphPad Prism 5, so as to determine the IC50 value of each compound on the enzyme activity.
The calculation formula was: […]

[3] = Pharmacokinetic test, oral, SD rats; assay type: in vivo; settings: oral 10 mg/kg, plasma; for AUC(0-inf) / Cmax / half-life: rat; for Cmax: read-out: Cmax; for half-life: read-out: T½ (converted)
Method: Each test compound was administered orally (10 mg/kg, 3 rats in each group) to SD rats for pharmacokinetic study. […] Animals were fasted overnight before oral administration, and fed again after 4 h of administration. […] At each collection time point, 3 whole blood samples were collected at a the collection volume of about 0.2-0.3 mL. […] The collected plasma was stored at -20° C. before analysis. 20 µL of plasma sample was added into a 1.6 mL 96-well deep-well plate, added with 200 µL of working internal standard solution (the same volume of vehicle was added to the blank instead of internal standard), vortexed for 1 min, and centrifuged at 5800 rpm for 10 min. 100 µL of the supernatant was added to a 96-well injection plate for LC-MS/MS analysis.

BTK wild-type kinase = BTK wild-type kinase (Homo sapiens (Human), UniProt Q06187); assay: BTK kinase activity inhibition test in vitro (Caliper EZ Reader); assay type: biochemical
In short: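 Compound (10 mM DMSO stock) preincubated with kinase 10 min at room temperature, then ATP plus kinase substrate 2 added, 10 min reaction at room temperature before stop. Substrate conversion read by Caliper mobility shift; inhibition normalised to no-enzyme and no-compound controls, IC50 by variable-slope log(inhibitor) fit.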

[4] = Liver microsome metabolic stability test, rat; assay type: in vitro ADME; settings: for half-life: liver microsomes, 0.5 mg/mL protein, read-out: T½
Method: as §1, §2, §3, §4, §5, §6

[5] = Blood-brain barrier permeability test, SD rats (plasma, cerebrospinal fluid, brain tissue); assay type: in vivo; settings: oral single dose 10 mg/kg
Method: Test Example 6: Blood-brain Barrier Permeability Test
Each test compound was administered orally at a single dose of 10 mg/kg to SD rats for pharmacokinetic study. Each group included 9 rats. The test compound was dissolved in 5% DMSO+10% solutol+85% saline, vortexed for 1-2 min, and ultrasonicated for 5-10 min to prepare into a colorless, transparent and clear administration solution. Animals were fasted overnight before administration. 1 h, 2 h, and 4 h after administration, three SD rats were selected from each group to take about 0.2-0.3 mL of blood through their orbit. The blood sample was placed on ice once collected, and centrifuged to separate the plasma within 15 min (centrifugation conditions: 8000 rpm, 1 min, room temperature). The collected plasma was stored at -20° C. before analysis. Immediately after blood collection, the cerebrospinal fluid and brain tissue were collected. The cerebrospinal fluid was draw out by dural puncture with a micro-sampler syringe under direct vision. Namely, about 100 µl of cerebrospinal fluid was collected with a 100 µl micro sample syringe from the rat that was anesthetized by chloral hydrate, with the head-fixed, the back hair-cut off, a transverse incision (2 cm) made at the line connecting the roots of the two ears, and the muscle layer of the neck and skull base bluntly scraped to expose the foramen magnum. The cerebrospinal fluid was stored at -20° C. before analysis. The rat then was sacrificed immediately, with its head cut off. The dissected brain tissue, with the surface capillaries peeled off, was weighed, added with 3 times the amount of cold saline, homogenized by a homogenizer for 1 min, and stored at -20° C. before analysis. 20 µL of plasma sample and brain homogenate sample was respectively added into 200 µL of working internal standard solution (the same volume of vehicle was added to the blank instead of internal standard), vortexed for 1 min, and centrifuged at 13500 rpm for 10 min. 100 µL of the supernatant was taken and analyzed by LC-MS/MS. 20 µL of the cerebrospinal fluid was added into 60 µL of working internal standard solution (the same volume of vehicle, instead of internal standard, was added to the blank), vortexed for 1 min, and centrifuged at 13500 rpm for 10 min. 50 µL of the supernatant was taken and analyzed by LC-MS/MS.

[6] = test system: DOHH-2-luc tumor cells in the mouse brain; assay: DOHH-2-Luc intracerebral tumor drug efficacy model test; assay type: in vivo; settings: DOHH-2-Luc intracerebral model, same dose, FIG. 4
Method: Test Example 8: DOHH-2-Luc Intracerebral Tumor Drug Efficacy Model Test
DOHH-2-luc tumor cells were cultured in vitro with RPMI 1640 medium containing 10% fetal bovine serum and 500 ng/mL puromycin in a 37° C., 5% CO2 incubator. […] Tumor cells in logarithmic growth phase were used for inoculation of tumors in vivo.
2. Inoculation of Tumor Cell and Grouping
After the animal was anesthetized by intramuscular injection of Zoletil, it was fixed on the operating table in a prone position. The skin on the top of the head was disinfected with iodine and 75% alcohol respectively, and the skin was cut about 0.5 cm along the midline of the head to expose the coronal and sagittal lines. Being located about 0.5-1.0 mm above the coronal line and about 2 mm to the right of the sagittal line by using a brain locator, a hole was drilled with a 1 mL syringe needle. The micro-injector was inserted vertically to a depth of 3 mm at the location, slowly (about 1 min) injected with 3 × 10^5 DOHH-2-luc tumor cells /2 µL suspension and kept for 1 min. After pulling out the needle, the needle hole was quickly sealed with bone wax, and the wound was sutured with a stapler. About the 7th day after tumor inoculation, the animals were randomly divided into 5 groups according to the body weight of the animals and the optical signal intensity of the tumor site, with 5 animals in each group.
The mice were imaged 1-2 times a week according to their state using the small animal in vivo imaging system IVIS Lumina III (Perkin Elmer). The bioluminescence imaging (BLI, unit: photons/s) signal intensity at the tumor cell inoculation site of mouse was monitored as the main indicator for evaluating tumor growth and drug efficacy. The specific operation is as follows:
The mice were intraperitoneally injected with D-luciferin (15 mg/mL, 5 µL/g according to the body weight of the experimental animal), and then inhaled anesthetized with 1%-2% isoflurane. 10 min after the injection of D-luciferin, the animals were imaged with IVIS Lumina III. The data were analyzed and processed using Living Image software (Perkin Elmer), and the optical signal intensity in ROI (regions of interest) of each animal was calculated.

[7] = test system: relapsed/refractory central nervous system lymphoma; settings: cited from earlier work; for ORR / PFS: patients

Chain of BTK wild-type kinase (Q06187 whole entry): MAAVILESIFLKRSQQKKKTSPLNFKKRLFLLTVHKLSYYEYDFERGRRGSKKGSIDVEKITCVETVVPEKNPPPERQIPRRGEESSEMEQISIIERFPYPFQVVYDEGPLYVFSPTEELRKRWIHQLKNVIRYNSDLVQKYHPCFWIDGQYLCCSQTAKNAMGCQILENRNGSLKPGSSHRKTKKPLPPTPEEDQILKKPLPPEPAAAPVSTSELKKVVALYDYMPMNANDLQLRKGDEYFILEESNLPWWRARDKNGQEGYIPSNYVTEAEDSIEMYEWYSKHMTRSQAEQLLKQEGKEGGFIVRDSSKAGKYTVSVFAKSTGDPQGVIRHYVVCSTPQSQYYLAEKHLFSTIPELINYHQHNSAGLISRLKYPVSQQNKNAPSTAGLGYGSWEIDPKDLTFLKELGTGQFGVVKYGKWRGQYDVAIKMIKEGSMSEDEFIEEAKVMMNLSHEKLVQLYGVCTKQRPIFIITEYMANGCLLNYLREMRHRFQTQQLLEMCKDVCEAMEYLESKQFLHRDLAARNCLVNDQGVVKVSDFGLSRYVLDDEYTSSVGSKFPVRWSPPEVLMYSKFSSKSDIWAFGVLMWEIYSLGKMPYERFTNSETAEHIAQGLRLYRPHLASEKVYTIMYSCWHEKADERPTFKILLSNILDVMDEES
Chain of BTK mutation-type C481S kinase (Q06187 whole entry C481S): as the sequence (Q06187 whole entry) above, with C481S counted along it

Structure (SMILES) | %Remaining (60 min) [1] [%] | half-life [1] [h] | IC50 [2] [nM] | Cl [3] [mL/min/kg] | AUC(0-inf) [3] [ng·h/mL] | Cmax [3] [ng/mL] | half-life [3] [h] | IC50 (BTK wild-type kinase) [nM] | %Remaining (60 min) [4] [%] | half-life [4] [h] | other results
N#Cc1ccnc(NC(=O)c2ccc(-c3nc(C4CCC(CO)OC4)n4ccnc(N)c34)cc2)c1 (centres unmarked) [Compound 103] | 100.3 | > 2.42 | < 5 | 16.67 | 10400 | 4730 | 1.73 | < 5 | 85.7 | > 2.42 | 
Nc1nccn2c(C3CCC(CO)OC3)nc(-c3ccc(Cc4ccccc4)cc3)c12 (centres unmarked) [Compound 106] | 66.3 | 1.76 | < 5 | 64.75 | 2580 | 1220 | 1.87 | < 5 | 39.1 | 0.782 | 
Nc1nccn2c(C3CCC(CO)OC3)nc(-c3ccc(C(F)(F)c4ccccc4)cc3)c12 (centres unmarked) [Compound 111] | 73.5 | 2.12 | < 5 | 17.83 | 9630 | 1780 | 3.15 | < 5 | 46 | 0.887 | 
Nc1nccn2c(C34CCC(CO)(CC3)OC4)nc(-c3ccc(C(F)(F)c4cccc(F)c4Cl)cc3)c12 [Compound 146] |  |  |  |  |  |  |  |  |  |  | Brain tissue/plasma ([5]; 1 h): 78%; Cerebrospinal fluid/plasma ([5]; 1 h): 7.2%; Drug concentration in brain tissue ([5]; 1 h): 296 ng/g; Drug concentration in cerebrospinal fluid ([5]; 1 h): 27.4 ng/mL; Plasma drug concentration ([5]; 1 h): 380 ng/mL; Brain tissue/plasma ([5]; 4 h): 110%; Cerebrospinal fluid/plasma ([5]; 4 h): 9.2%; Drug concentration in brain tissue ([5]; 4 h): 410 ng/g; Drug concentration in cerebrospinal fluid ([5]; 4 h): 34.3 ng/mL; Plasma drug concentration ([5]; 4 h): 373 ng/mL
CC#CC(=O)N1CC[C@@H](n2c(=O)n(-c3ccc(Oc4ccccc4)cc3)c3c(N)ncnc32)C1 [Tirabrutinib, reference compound] | 66.3 | 1.77 |  | 189.92 | 965 | 920 | 0.33 |  | 37.0 | 0.702 | tumor size in the brain by fluorescence image [6]: large red areas; ORR ([7]; 320 mg QD): 60%; PFS ([7]; 320 mg QD): 2.1 months; ORR ([7]; 480 mg QD (fasting condition)): 52.9%; PFS ([7]; 480 mg QD (fasting condition)): 5.8 months; ORR ([7]; 480 mg QD): 100%; PFS ([7]; 480 mg QD): 11.1 months
CC#CC(=O)N1CC[C@@H](n2c(=O)n(-c3ccc(Oc4ccccc4)cc3)c3c(N)ncnc32)C1 [Velexbru, Tirabrutinib hydrochloride] |  |  |  |  |  |  |  |  |  |  | patients who achieved effective remission ([7]; relapsed or refractory PCNSL patients): 52.9%
